Entries after “also recorded” stand apart in the source; their conditions may differ.
Tests used:
Assay type in all cases: cell-based, human
THP-1 cells = assay: MTT viability of THP-1 cells; details: at the concentrations used for IL-6 ELISA (dose range b224, 10 μM b226, 1 μM b229)
[1] = tested on: LPS-stimulated IL-6 production in THP-1 macrophages; assay: ELISA of LPS-stimulated IL-6 production in THP-1 macrophages; details: 10 μM, 6 h, LPS-stimulated THP-1
Protocol: Cells and cell culture. THP-1 monocytic cells were purchased from the American Type Culture Collection (Rockville, Md.), and maintained with L-glutamine-containing RPMI 1640 supplemented with 10% fetal bovine serum (FBS), 0.25% glucose, 0.01% sodium pyruvate, 50 μM 2-mercaptoethanol, and 0.1 ml/ml penicillin/streptomycin/L-glutamine. Differentiation of THP-1 monocytes into macrophages was carried out by exposure to PMA (50 nM) in the aforementioned RPMI 1640 medium for 24 h. Colon-26 (C-26) adenocarcinoma cells were provided by a researcher at The Ohio State University. The C-26 cells were maintained in RPMI 1640 medium supplemented with 5% FBS and 1% penicillin/streptomycin.
ELISA. IL-6 release by differentiated THP-1 macrophages in response to 10 ng/ml of LPS was analyzed by using the IL-6 ELISA kit (Cayman Chemical Co.; Ann Arbor, Mich.) according to the manufacturer's instruction in triplicate. The effect of each test compound on LPS-stimulated IL-6 release is presented as percent inhibition and was calculated using the following formula: percentage inhibition=100%×{1−[(O.D. of sample−O.D. of control)/(O.D. of LPS−O.D. of control)]}.

AMPK = assay: Western blot of AMPK phosphorylation in LPS-treated THP-1 macrophages; details: 10 μM, 6 h, LPS-treated THP-1
Protocol: Western blotting. THP-1 cells were lysed in SDS-sample buffer after washing with iced-PBS buffer, and then heated at 95° C. for 20 minutes. Protein extracts were prepared using M-PER mammalian protein extraction reagent (Pierce, Rockford, Ill.), containing freshly added 1% phosphatase and protease inhibitor cocktails (Calbiochem). After centrifugation of lysates at 13000 g for 10 min, supernatants were collected, and the protein concentration in each sample was determined by protein assay (Bio-Rad). Protein extracts were then suspended in 2×SDS sample buffer, separated by electrophoresis in 10% SDS-polyacrylamide gels, and transferred to nitrocellulose membranes using a semidry transfer cell. The transblotted membrane was washed twice with Tris-buffered saline containing 0.1% Tween-20 (TBST). After blocking with TBST containing 5% nonfat milk for 1 h, the membrane was incubated with primary antibodies: p172Thr-AMPK, AMPK, p705Tyr-STAT3 and STAT3 (Cell Signaling Technology; Beverly, Mass.); p389Thr-p70S6K and p70S6K (Santa Cruz Biotechnology; Santa Cruz, Calif.), each at 1:1,000 dilution in 1% TBST-nonfat milk at 4° C. overnight. After incubation with the primary antibody, the membrane was washed three times with TBST for a total of 30 min, followed by incubation with horseradish peroxidase-conjugated goat anti-mouse IgG (diluted 1:2500) for 1 h at room temperature. […]

`CC1(COc2ccc(C=C3SC(=O)NC3=O)cc2)CCCCC1` [compound 62] was tested, and the “effect on viability of THP-1 cells” value (THP-1 cells) was “neither agent inhibited the viability of THP-1 cells”, the “effect on LPS-stimulated IL-6 production” value [1] was “modest activities” and the “AMPK activation (p-AMPK level)” value (AMPK) was “effective in elevating the level of p-AMPK; also recorded: modest activities”.
